Read-outs that look alike come from different tables or passages of the source.
How the values were obtained:
MITF [1] = test: MITF mRNA and protein expression (RT-PCR, western blot, immunofluorescence) in melanoma cell lines; format: cell-based; conditions: MTX 1 μM; mouse (B16/F10) and human (SK-MEL-28, G361, A375) cell lines
Procedure: (§1) mRNA extraction, cDNA synthesis, and conventional and qRT-PCR were performed under standard conditions. Primers were designed using Primer Express version 2.0 software (Applied Biosystems, Foster City, Calif.) and synthesized by Invitrogen (Barcelona, Spain).
(§2) Whole cell lysates were collected by adding SDS sample buffer. After extensive sonication, samples were boiled for 10 min and subjected to SDS-PAGE. Proteins were then transferred to nitrocellulose membranes and analyzed by immunoblotting (ECL Plus, GE Healthcare, Barcelona, Spain).
Confocal microscopy was carried out using a Leica TCS 4D confocal microscope (Wetzlar, Germany). For indirect immuno-fluorescence studies, preparation of the cells on glass slides were fixed with cold acetone for 5 min, and washed with PBS. The cells were incubated with 3% bovine serum albumin (BSA) for 20 min and then 2 h at room temperature with primary antibodies (diluted 1:200 in PBS containing 1% BSA) as described in each experiment. The cells were washed three times in PBS and incubated for 1 h at room temperature with Alexa Fluor Dyes (Invitrogen) as secondary antibodies. After 3 washes with PBS, the cells were incubated with 0.01% 4′-6-diamidino-2-phenylidene (DAPI; Sigma) in water for 5 min. […]

Caco-2 = test: HPLC/MS/MS intracellular levels of MTX in Caco-2; format: cell-based; conditions: Caco-2, same MTX treatment (24 h, 1 μM)
TYR = TYR mRNA and protein expression in melanoma cell lines; format: cell-based, human; conditions: MTX 1 μM; SK-MEL-28 and multiple melanoma cell lines
Procedure: H, Semiquantitative RT PCR of TYR, TYRP1, Pmel17, MART1, and Rab27a mRNA. SK-MEL-28 and siMITF-SK-MEL-28 cells were treated for 5 h with 1 μM MTX. mRNA levels are presented relative to β-actin mRNA and compared to their expression levels in untreated cells (1-fold).
as §1, §2

[2] = test system: B16/F10 primary splenic tumors; test: Primary spleen tumors after intrasplenic injection of luciferase-tagged B16/F10 cells; format: in vivo, mouse
Procedure: C, Luciferase imaging of control and MTX/TMECG-treated mice 12 days post-tumor cell injection. Beetle luciferin (120 mg/kg of mouse) was injected intraperitoneally. The values (means±s.d.) are representative of three independent experiments. *P=0.007; **P=0.002. […] Xenograft tumors treated with DMSO (vehicle) or MTX/TMECG (1 mg/kg/day and 50 mg/kg/day, respectively) over 14-days. […] Representative images taken from two independent experiments (n=5 for each experiment). Scale bar=200 μm and is applicable to both panels. I, B16/F10 melanoma cells, expressing a luciferase reporter, were injected subcutaneously to mice. Mice were divided in two groups (n=7) and treated with vehicle (DMSO) or MTX/TMECG (1 mg/kg/day and 10 mg/kg/day, respectively) over 21-days. Then, tumors were pooled and dissociated. B16/F10 cells extracted from tumors were examined for their sensitivity to the MTX/TMECG combination (1 μM and 10 μM, respectively) using quantification of the luminescence signal (left panel). […] Scale bar refers to all panels. […] Mice were treated with vehicle, MTX (1 mg/kg/day), and/or TMECG (50 mg/kg/day). […] Scale bar refers to all panels.
A, Luciferase imaging of vehicle (control), MTX, and/or TMECG-treated mice 12 days post-tumor cell injection. Firefly luciferin (120 mg/kg of mouse) was injected intraperitoneally. The values are representative of three independent experiments. […] The number of cells was estimated by extrapolation of the experimental luciferase signal to calibration curves. A straight line with a good linear correlation coefficient (0.998) was obtained by plotting luciferase signal vs number of B16/F10-luc2 cells. Treatment of mice (n=6) started 24 hr after tumor induction (Day 1). For all experiments: *p<0.05 with respect to control mice; #p<0.05 with respect to individual MTX or TMECG treatments.

IGR39 cells = test: Matrigel Boyden chamber invasion assay, IGR39; format: cell-based; conditions: IGR39, MTX 72 h, 1 μM
Procedure: FIGS. 1A-J. Methotrexate up-regulates the expression of MITF. A, The MITF rheostat, and the two-step strategy for melanoma therapy: Drug A induces MITF, driving cells to be sensitive to Drug B. B, MTX (1 μM) increases MITF mRNA determined using quantitative and conventional RT-PCR from indicated cell lines. […] C, MTX (1 μM) induces MITF protein assayed by western blotting (WB) (*P<0.05). D, Immunofluorescence of control or MTX-treated (3 h) 501 MEL cells using anti-MITF and DAPI. E, Matrigel assay of control and MTX-treated SKMEL-28 cells (48 h, 1 μM) and IGR39 (72 h, 1 μM) cells. […] Scale bar refers to all panels. F, Chromatin immunoprecipitation on TYR and Pmel17 genes of control and MTX-treated (4 h, 1 μM) SK-MEL-28 cells with qRT-PCR after immunoprecipitation with IgG, or MITF and HDAC3 antibodies. Error bars indicate standard deviations of triplicates; experiment reproduced four times with similar results. G, Scanning electron micrographs of control and MTX-treated (1 μM, 24 h) SK-MEL-28 cells. H, Semiquantitative RT PCR of TYR, TYRP1, Pmel17, MART1, and Rab27a mRNA. […]
Invasion assays were performed using a cell invasion assay kit (BD Bioscience). […] The invading cells were stained and quantified measuring the surface occupied by stained cells with a cell counter plug-in of the Image J software.

MITF [3] = test: ChIP assay, occupancy of MITF on TYR and Pmel17 genes in SK-MEL-28 cells; format: cell-based; conditions: Homo sapiens, SK-MEL-28, MTX 4 h
Procedure: The ChIP assay was performed with the Magna ChIP™ G kit from Millipore according to the manufacturer's instructions. […] The cross-linked chromatin was then used for immunoprecipitation with MITF antibody, HDAC3 antibody (positive control) or mouse IgG (negative control). DNA from lysates prior to immunoprecipitation was used as positive input controls.

[4] = test system: melanoma cells (SK-MEL-28); test: dNTP pool extraction and analysis; format: cell-based, human
Procedure: FIGS. 2A-N. MTX and TMECG combination therapy induces apoptosis via dTTP depletion and DNA-damage. A, Intracellular accumulation of TMECG-QM in SK-MEL-28 treated with TMECG or MTX/TMECG for 24 h. B, Proliferation assays performed of control or MTX/TMECG-treated ([…]) SK-MEL-28 cells. C, Quantification of effects of MTX/TMECG treatment on SK-MEL-28 cells (*P<0.05 with respect to TMECG-treated cells). For time course assay MTX (1 μM) and TMECG (10 μM) were used. D, dNTP quantification in melanoma cells subjected to indicated treatments (*P<0.05). E, SK-MEL-28 cells treated with MTX/TMECG for the indicated times were examined by immunofluorescence for γH2AX foci (red) and DAPI (blue) (left panels), or by WB (right panels). β-actin served as a protein loading control. F, apoptosis determination at different MTX/TMECG combinations in SK-MEL-28 cells after 4 days of treatment. Data were obtained in triplicate in two independent experiments. Differences in apoptosis in MTX/TMECG treated cells were significant with respect to individual treatments for each drug concentration (p<0.05). […] K, quantification of γH2AX foci in SK-MEL-28 cells treated with MTX (1 μM) and/or TMECG (10 μM), or X-rays. […] N, Cell cycle profile determined by flow cytometry of SK-MEL-28 cells treated with a sublethal dose of MTX/TMECG. […]

## CN(Cc1cnc2nc(N)nc(N)c2n1)c1ccc(C(=O)N[C@@H](CCC(=O)O)C(=O)O)cc1 [MTX, methotrexate]
MITF [1]
  MITF mRNA and protein: increased
Caco-2
  intracellular levels of MTX: 0.8 ± 0.3 pmol/106 cells
TYR
  mRNA expression of MITF differentiation target TYR and TYR protein expression: increased
[2]; 14 days treatment, MTX 1 mg/kg/day and/or TMECG 50 mg/kg/day
  necrotic areas in splenic tumors: 4%±2%
[2]; MTX or TMECG alone, 12 days post-tumor cell injection
  effect on in vivo luciferase signal: around 2 fold
IGR39 cells
  invasiveness: eliminated invasiveness
MITF [3]; untreated cells 1.5%, read-out: occupancy of MITF on the TYR promoter with respect to an input control
  receptor occupancy at 1 µM: 25.2%
MITF [3]; untreated cells 5.4%, read-out: occupancy of MITF on the promoter/enhancer of the Pmel17 gene with respect to an input control
  receptor occupancy at 1 µM: 45.4%
[4]
  dTTP levels: increased dTTP levels
